Assay results reported in the supplement of paper PMC13380429.

What was measured:
Conditions in all cases: 72 h
[1] = system: Calu-3; assay: cell viability relative to DMSO; higher = less toxic
[2] = system: U2OS; assay: as above
[3] = system: Vero E6; assay: as above
[4] = system: HepG2; assay: as above
[5] = system: Caco-2; assay: as above
[6] = system: Calu-3; assay: drug sensitivity score (DSS) for viability; higher = more toxic; extreme values may be limits of the assay
[7] = system: U2OS; assay: as above
[8] = system: Vero E6; assay: as above
[9] = system: HepG2; assay: as above
[10] = system: Caco-2; assay: as above
[11] = system: Calu-3; assay: relative viability EC50 (midpoint between 100% and the lowest measured viability); higher = less toxic
[12] = system: U2OS; assay: as above
[13] = system: Vero E6; assay: as above
[14] = system: HepG2; assay: as above
[15] = system: Caco-2; assay: as above

SMILES	cell viability ([1]; 1 nM) [%]	cell viability ([1]; 10 nM) [%]	cell viability ([1]; 100 nM) [%]	cell viability ([1]; 1000 nM) [%]	cell viability ([1]; 10000 nM) [%]	cell viability ([2]; 1 nM) [%]	cell viability ([2]; 10 nM) [%]	cell viability ([2]; 100 nM) [%]	cell viability ([2]; 1000 nM) [%]	cell viability ([2]; 10000 nM) [%]	cell viability ([3]; 1 nM) [%]	cell viability ([3]; 10 nM) [%]	cell viability ([3]; 100 nM) [%]	cell viability ([3]; 1000 nM) [%]	cell viability ([3]; 10000 nM) [%]	cell viability ([4]; 1 nM) [%]	cell viability ([4]; 10 nM) [%]	cell viability ([4]; 100 nM) [%]	cell viability ([4]; 1000 nM) [%]	cell viability ([4]; 10000 nM) [%]	cell viability ([5]; 1 nM) [%]	cell viability ([5]; 10 nM) [%]	cell viability ([5]; 100 nM) [%]	cell viability ([5]; 1000 nM) [%]	cell viability ([5]; 10000 nM) [%]	drug sensitivity score [6]	drug sensitivity score [7]	drug sensitivity score [8]	drug sensitivity score [9]	drug sensitivity score [10]	relative viability EC50 [11] [µM]	relative viability EC50 [12] [µM]	relative viability EC50 [13] [µM]	relative viability EC50 [14] [µM]	relative viability EC50 [15] [µM]
FCc1ccc(OCCOc2ccc(Cl)cc2Cl)c(Cl)n1	101	101	101	97.9	92.4	100	96.4	102	94.4	92.7	95.2	105	96.6	103	103	94.8	97.1	98.9	104	86.3	92.7	92.8	107	90.5	77	0	0	0	0.1	1.9	> 10	> 10	> 10	> 10	> 10
O=C1c2cccnc2OC[C@@H]2CCCN12	103	87.1	98.9	101	91.1	103	98.6	95.9	97.7	96.4	93.8	98.5	90.5	91	103	96.9	98.8	96.1	102	99.2	108	99.6	100	95.6	100	0	0	0	0	0	> 10	> 10	> 10	> 10	> 10
CC(=C(CCOC(=O)C(C)C)SSC(CCOC(=O)C(C)C)=C(C)N(C=O)Cc1cnc(C)nc1N)N(C=O)Cc1cnc(C)nc1N (stereo in doubt) [sulbutiamine]	109	111	112	105	89.1	101	106	105	101	92.8	100	84.3	98.7	89.2	95.1	101	84.5	112	95.3	97.4	90.8	105	70.2	98.5	81.8	0	0	0	0	1.2	> 10	> 10	> 10	> 10	–
c1cc(OCCN2CCCCC2)cc(-c2n[nH]c3ccc(-c4nnc[nH]4)cc23)c1 [CC-401]	104	89.2	96	95.2	122	101	96.4	100	94.1	93.4	101	98	101	103	95.2	94.5	96.7	88.4	90.7	61.5	101	95.7	95.5	97.3	106	0	0	0	2.9	0	> 10	> 10	> 10	–	> 10
CCOC(=O)CCNc1cc(N2CCc3ccccc3CC2)nc(-c2ccccn2)n1 [GSK-J4]	103	89.5	96.5	97.5	21.2	97.8	97.6	99.3	94.8	5.5	93.9	101	91.7	96.8	63.2	103	103	97.8	104	33.5	93.2	88.2	104	70.9	17.4	4.7	6	2.3	3.4	8.6	2.93	2.74	–	3.45	1.28
COc1oc(=O)c2cc(N)ccc2c1Cl [JLK-6]	103	105	106	94.9	80.9	99.7	98.2	99.1	99.4	91.7	108	104	100	104	93.8	96.6	113	103	105	73.1	99.2	94.6	96.1	95.4	76.6	1.1	0	0	0.8	1.5	> 10	> 10	> 10	–	> 10
Cn1cc(-c2cnc3ccc4ccc(CS(=O)(=O)NCc5ccccn5)cc4c(=O)c3c2)cn1 [MK-8033]	99.8	87.8	105	94.5	99.9	97.6	98.7	98.7	101	91.7	104	98.8	104	99.4	97.7	113	93.3	110	95.3	53.8	96.4	95.6	91.8	97.9	75.1	0	0	0	3.2	1.2	> 10	> 10	> 10	–	> 10
CN(C)CCCNC(=O)c1ccc(-c2cc(O)c3ncccc3c2)cc1 [ML324]	105	93.8	106	94.1	83.4	105	98.9	107	98.5	85	98.5	100	96.2	101	58.1	88.7	103	88.2	104	35.7	107	94.3	107	91.7	80.6	0.9	0.4	2	3.2	1.4	> 10	> 10	–	3.52	> 10
CC1(C)CCC[C@]2(C)[C@H]3CC(=O)O[C@]3(C)CC[C@@H]12 [Sclareolide (Norambreinolide)]	100	104	99.4	107	87.6	100	100	97	99.5	99.5	–	–	–	–	–	106	99.1	108	101	100	95.7	96.6	92.7	102	88.5	0	0	–	0	0	> 10	> 10	–	> 10	> 10
CN(C)CCCO[C@@H]1[C@H]2OC(C)(C)O[C@H]2O[C@@H]1[C@H](O)CO [amiprilose]	98.7	102	98	101	100	102	99.8	100	103	101	–	–	–	–	–	91.3	102	97.3	99.6	85.8	107	86.8	101	95.1	97.3	0	0	–	0.2	0	> 10	> 10	–	> 10	> 10
Nc1ccc(F)cc1NC(=O)c1ccc(CNC(=O)/C=C/c2cccnc2)cc1 [chidamide]	113	101	89.4	49.1	35.1	101	103	104	77.6	9.8	95.6	99.7	95.4	100	67.5	97.6	105	91.4	69.4	28.1	95.3	104	97.1	85.1	55.9	10.7	8.4	1.4	7.4	4.1	0.365	1.56	–	1.17	–
CCCC(=O)OCOC(=O)C1=C(C)NC(C)=C(C(=O)OC)C1c1cccc(Cl)c1Cl (stereo not drawn) [cleviprex]	101	92	105	108	118	98.8	104	100	107	95.3	–	–	–	–	–	97.9	97.8	110	111	99.8	97.6	109	99.1	102	87	0	0	–	0	0.1	> 10	> 10	–	> 10	> 10
CN(C)CC[C@@](O)(c1ccccc1)c1ccccc1Cl [clofedanol]	101	106	102	101	96.4	99.2	98.1	92.7	102	100	104	96.5	99.5	88.9	101	93.7	97.1	101	94.2	113	93.4	89.6	103	95.8	72.5	0	0	0	0	1.8	> 10	> 10	> 10	> 10	–
N[C@H](Cc1c[nH]cn1)C(=O)O [copper-histidine]	105	94.4	84.8	82.1	99.5	101	96.1	95.8	97.3	97.3	–	–	–	–	–	110	98.7	103	104	89.3	106	102	107	98.8	107	0.1	0	–	0	0	> 10	> 10	–	> 10	> 10
Nc1nc(=O)[nH]cc1F [flucytosine]	87.6	102	99.9	91.1	111	98.6	99.2	102	97.9	104	–	–	–	–	–	101	110	97.6	109	110	97.6	94	100	96.5	92.9	0	0	–	0	0	> 10	> 10	–	> 10	> 10
Oc1c(I)cc(I)c2cccnc12 [iodoquinol]	106	98.6	99.7	93.4	98.4	104	100	102	98.5	85.2	100	106	100	99.8	68.1	109	99	93.7	99.9	36.1	107	94.3	97.1	96.3	63.1	0	0.4	1.5	3.5	2.4	> 10	> 10	–	3.15	–
O=C1[C@@H]2[C@H]3CC[C@H](C3)[C@@H]2C(=O)N1C[C@@H]1CCCC[C@H]1CN1CCN(c2nsc3ccccc23)CC1 [lurasidone]	99.8	97.8	105	94.7	105	104	107	95.9	102	88.4	104	102	103	99.6	97.2	106	106	99.5	96.9	89.2	94.5	100	99.6	104	64.5	0	0	0	0.1	1.4	> 10	> 10	> 10	> 10	–
CC#C[C@]1(O)CC[C@H]2[C@@H]3CCC4=CC(=O)CCC4=C3[C@@H](c3ccc(N(C)C)cc3)C[C@@]21C [mifepristone]	96.2	103	88.7	96.3	109	100	100	100	104	91.8	98	101	98.4	96.8	97.6	93.6	92.6	102	90.3	99	88.8	93.4	94.1	100	72	0	0	0	0	1.2	> 10	> 10	> 10	> 10	–
O=C1CN(/N=C/c2ccc([N+](=O)[O-])o2)C(=O)N1 [nitrofurantoin]	106	111	97.6	94.3	102	104	97.9	101	101	103	92.4	95.1	98.4	96.7	97.4	98.4	111	113	109	60	101	101	95.8	89.9	103	0	0	0	1.5	0	> 10	> 10	> 10	–	> 10
CCCCCCCCCCCCOCCOCCOCCOCCOCCOCCOCCOCCOCCO [polidocanol]	106	105	99.6	106	91.5	91.5	103	95.4	101	90.4	99.5	89.7	104	108	116	105	98.5	124	111	28.9	85.7	105	99.9	108	69.7	0	0	0	3.3	1	> 10	> 10	> 10	3.8	–
CCc1nc(N)nc(N)c1-c1ccc(Cl)cc1 [pyrimethamine]	101	111	101	99	107	100	108	99.8	102	96.8	96.3	93	103	99.9	60.7	108	91.5	102	93.2	77.9	–	–	–	–	–	0	0	2	1.6	–	> 10	> 10	–	> 10	–
Cc1ncc(CSSCc2cnc(C)c(O)c2CO)c(CO)c1O [pyritinol]	96.1	105	94.4	99.2	105	103	100	96.6	101	98.3	–	–	–	–	–	90	97.7	108	95.8	97.8	99.8	87.4	94.5	100	92.7	0	0	–	0	0	> 10	> 10	–	> 10	> 10
Clc1ccc(CSC(Cn2ccnc2)c2ccc(Cl)cc2Cl)cc1 (stereo not drawn) [sulconazole]	107	95.5	102	110	96.7	97.5	101	96	101	93.7	106	104	104	95.4	94.6	86.9	87.4	102	99.1	98.1	99.5	92.7	97.3	94	63.5	0	0	0	0	2.7	> 10	> 10	> 10	> 10	–
CS(=O)(=O)c1ccc([C@@H](O)[C@@H](CO)NC(=O)C(Cl)Cl)cc1 [thiamphenicol]	106	94.5	102	89.7	97.8	99.5	97.5	105	96.6	99	95.8	99.3	92.3	96.8	98.1	101	110	93.4	101	67.3	99.7	89.8	91.7	93.4	94.4	0	0	0	1.4	0	> 10	> 10	> 10	–	> 10
